The results in this text go back to patent publication EP4792811A1, “S1PR4 REGULATOR COMPOUND FOR MUSCLE DISEASE TREATMENT AND APPLICATION THEREOF” (Shengyuan Zetong (Shanghai) Pharmaceutical Co., Ltd, priority 2023, dated 2025).

The structures appear in SMILES notation. Numbering of substitutions follows the chain as printed.

Data set [1] relates to S1PR4-R82C/NDUFA10-R217W double-mutant mice. The experiment in a line: In vivo efficacy in S1PR4-R82C/NDUFA10-R217W double-mutant muscular dystrophy mice. Particulars: 1 mg/kg intragastric once daily. The method, then:
Experimental Animals: A total of 34 S1PR4-R82C/NDUFA10-R217W mice were divided into 6 groups as shown below.
Intragastric administration was initiated on Day 0, and body weight was measured daily during the experiment to adjust the drug dosage. Grip strength was measured at the beginning and end of the experiment to observe motor changes in mice. Changes in the limb grip strength, serum creatine kinase content, and muscle fibrosis/inflammation in mice were detected as indicators for evaluating drug efficacy.
(§1) The mouse was placed horizontally on the grip test board. The mouse's tail was held and pulled gently in the opposite direction without using excessive force. The tail was gradually pulled until the mouse released the grip force sensor. The maximum value recorded by the grip force sensor is the grip strength. The test was repeated for 3 times and the average value was taken.
(§2) After the completion of administration, blood was collected via the orbital sinus, allowed to stand for 30 minutes, centrifuged at 3000 rpm at 4°C for 15 minutes, and serum was extracted, stored frozen at -20°C, and detected in accordance with the kit instructions.
(§3) After the experiment, the tibialis anterior, extensor digitorum longus, and diaphragm of the mice were harvested, fixed, sectioned, and subjected to HE staining and Sirius Red staining to observe the degree of muscle fibrosis. The slice was subjected to immunofluorescence staining with F4/80 to observe the level of muscle inflammation.

Data set [2] deals with T1, hS1P1 (Homo sapiens, UniProt P21453).
T1 construct: expressed in transfected cells; host or cells: CHO-K1
In words: Tango β-arrestin recruitment assay, Tango-hS1P1-CHO. Format: cell-based. The conditions noted are these: final concentration 45 µM, 9 serial dilutions at 5-fold intervals; 20 h drug treatment; luciferase readout. From the text:
(§4) The Tango assay detects ligand-dependent GPCR activity through the interaction between β-arrestin and GPCRs. […] The NTEV fragment and the tetracycline transactivator (tTA), an artificial transcription factor, are fused at the C-terminus of the GPCR, while the CTEV fragment is fused to human β-arrestin 2. To enhance the stability of the interaction between GPCR and β-arrestin, a short sequence from the C-terminus of the human arginine vasopressin receptor 2 (V2 tail) is inserted between the GPCR and NTEV. The V2 tail contains multiple GRK phosphorylation sites, which strengthen β-arrestin binding upon phosphorylation. The CTEV fragment carries the stabile point mutation S219P and is truncated at residue 221 to remove the autoinhibitory C-terminal tail. Meanwhile, β-arrestin 2 is truncated to lack the entire C-terminal tail (residues 383-410 deleted). This truncation confers robust stimulus-dependent receptor desensitization, thereby improving detection sensitivity compared with wild-type β-arrestin 2. The UAS reporter construct consists of upstream activating sequence (UAS) elements, a minimal CMV promoter, and a tTA-dependent luciferase reporter gene. Therefore, constructing Tango cells requires the co-transfection of the above three plasmids into host cells. Upon GPCR activation and β-arrestin recruitment, the TEV enzyme at the β-arrestin terminus cleaves tTA from the GPCR C-terminus. The released tTA initiates tTA-dependent luciferase transcription, and compound activity is ultimately determined by measuring luminescence intensity.
(§5) • 1) Tango cell line from was digested from the culture dish respectively. After cell counting, the cells were plated at a density of 10,000 cells per well with […] into a white opaque 96-well plate (add 60 µL D'Hanks to the surrounding wells), and incubated overnight (20 h) in a 5% CO2 incubator at 37°C. The cell density will reach approximately 90% the next day. • 2) After 20 h, 30 µL of serially diluted compound solution was added to each well. The control group was supplemented with 30 µL F12K complete medium. Each group had three replicate wells. • 3) Samples were collected after 20 h of drug treatment.
(§6) (All compounds were tested at a final concentration of 45 µM, with 9 serial dilutions at 5-fold intervals. 1 µM BAF-312 was used as the positive control for S1PR1, and 25 µM BAF-312 was used as the positive control for S1PR4.)
^a β-arrestin recruitment activity based on Tango-S1PR1-CHO-K1 and Tango-S1PR4-CHO-K1 cells, expressed as mean EC50 values ± SD. ^b FLIPR assays were performed using S1PR2-CHO and S1PR5-CHO cell lines, expressed as mean EC50 values ± SD. ^c β-arrestin recruitment activity based on PathHunter CHO-K1-S1PR3 cells, expressed as mean EC50 values ± SD. Data are the mean of at least two independent determinations, reported as mean ± SD (standard deviation).

Data set [3] relates to Duchenne muscular dystrophy model mice. The experiment in a line: In vivo pharmacodynamic test in Duchenne muscular dystrophy model mice (Compound 30). The conditions noted are these: 1 mg/kg intragastric once daily. As to the method:
Experimental Animals: A total of 35 Duchenne muscular dystrophy model mice were divided into 6 groups as shown below.
Intragastric administration was initiated from Day 0. Body weight was measured daily during the experiment to adjust the drug dosage. Grip strength tests were performed every 2 days to observe changes in the mice's grip strength until the experiment concluded on Day 21. Changes in the limb grip strength, serum creatine kinase content, and muscle fibrosis/inflammation in the mice were detected as indicators for evaluating drug efficacy.
as §1, §2, §3

The target in data set [4] is T2, hS1P4-R-79C (Homo sapiens, UniProt O95977, R79C).
T2 construct: expressed in transfected cells; host or cells: CHO
T2 sequence (O95977 1-384 R79C): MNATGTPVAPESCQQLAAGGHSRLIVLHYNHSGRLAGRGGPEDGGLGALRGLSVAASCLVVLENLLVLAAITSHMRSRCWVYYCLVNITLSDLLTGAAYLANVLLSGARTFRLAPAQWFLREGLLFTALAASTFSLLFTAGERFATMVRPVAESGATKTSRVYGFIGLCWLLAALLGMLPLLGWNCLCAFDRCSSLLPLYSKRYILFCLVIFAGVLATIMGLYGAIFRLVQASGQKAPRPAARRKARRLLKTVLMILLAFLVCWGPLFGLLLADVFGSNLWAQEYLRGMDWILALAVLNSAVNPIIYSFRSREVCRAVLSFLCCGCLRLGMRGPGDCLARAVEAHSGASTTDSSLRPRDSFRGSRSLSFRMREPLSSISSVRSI
The experiment in a line: Tango β-arrestin recruitment assay, Tango-hS1P4-R-79C-CHO. Format: cell-based. The conditions noted are these: final concentration 45 µM, 9 serial dilutions at 5-fold intervals; 20 h drug treatment; luciferase readout.
From the text: as §4, §5, §6
(In general: Recruitment of arrestin is a read-out of receptor activation apart from second messengers.)

In data set [5] the target is T3, S1PR4 (Homo sapiens, UniProt O95977).
T3 construct: expressed in transfected cells; host or cells: 293T
T3 sequence (O95977 1-384): T2 sequence (O95977 1-384 R79C) with C79R
In words: S1PR4 internalization function test in S1PR4-293T cells. Format: cell-based. The conditions noted are these: 1 µM, 37 °C, 1.5 hours; detected immediately, or at 5 hours or 20 hours after treatment. As to the method:
Therefore, the recovery degree of S1PR4 after internalization caused by Compound 30 was evaluated, and the recovery effect following receptor internalization caused by Compound 30 was assessed in cells with high S1PR4 expression.

T1 sequence (P21453 whole entry): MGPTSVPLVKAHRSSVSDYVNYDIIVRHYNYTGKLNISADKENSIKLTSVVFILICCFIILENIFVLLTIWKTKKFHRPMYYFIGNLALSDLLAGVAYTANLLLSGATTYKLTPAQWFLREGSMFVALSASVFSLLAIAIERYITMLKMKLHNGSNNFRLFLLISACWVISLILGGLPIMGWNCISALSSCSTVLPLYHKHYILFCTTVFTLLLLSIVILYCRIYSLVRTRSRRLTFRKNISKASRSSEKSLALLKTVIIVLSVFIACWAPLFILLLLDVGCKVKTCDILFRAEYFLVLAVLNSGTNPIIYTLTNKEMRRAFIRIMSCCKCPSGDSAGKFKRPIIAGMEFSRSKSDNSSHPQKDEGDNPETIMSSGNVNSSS

Broadly, the EC50 is the concentration at which the effect is half-maximal. Lower therefore signals a more potent agent. Regarding `CCc1cc(/C(C)=N/OCc2ccc(C3CCCCC3)c(C(F)(F)F)c2)ccc1CN1CC(C(=O)O)C1` [BAF312, reference compound], the “collagen deposition (collagen area ratio)” value in data set [1] (after administration) was “significantly reduced collagen deposition”; in data set [3] it was “no difference”. Also, the “serum creatine kinase level” value is “significantly reduced” in data set [1] (after treatment) and “no such effect” in data set [3] (after treatment). Also, the “body weight gain trend” value in data set [1] (compared with the model group) is given as “no difference”. The EC50 in data set [2] was determined as 1.04 nM; in data set [4], 157 nM. In addition, in data set [3], the “macrophage content (F4/80 immunofluorescence, muscle inflammation)” value was “no improvement”. Besides, the “number of centrally nucleated fibers (HE staining)” value in data set [3] is reported as “significantly reduced”. Besides, the “body weight growth trend” value in data set [3] (compared with the model group) is on record as “no difference”. Moreover, the “S1PR4 internalization (expression of S1PR4 receptor on the cell surface)” value in data set [5] is “cannot induce S1PR4 internalization”.
